Reference: the NIST ThermoML archive (doi:10.1021/acs.jced.6b00786)

Experiment: xn = mol fraction of the nth substance listed
Conditions: 101 kPa, Liquid, Vibrating tube method

NC=O [formamide] + O
Conditions	mass density [kg/m3]
274.15 K, x1 = 0.00244	1001.03
274.15 K, x1 = 0.00515	1002.28
274.15 K, x1 = 0.0086	1003.85
274.15 K, x1 = 0.02032	1009
274.15 K, x1 = 0.03478	1014.99
274.15 K, x1 = 0.04976	1020.81
274.15 K, x1 = 0.06674	1026.93
274.15 K, x1 = 0.08229	1032.24
274.15 K, x1 = 0.1171	1043.06
275.15 K, x1 = 0.00244	1001.06
275.15 K, x1 = 0.00515	1002.29
275.15 K, x1 = 0.0086	1003.84
275.15 K, x1 = 0.02032	1008.93
275.15 K, x1 = 0.03478	1014.85
275.15 K, x1 = 0.04976	1020.62
275.15 K, x1 = 0.06674	1026.67
275.15 K, x1 = 0.08229	1031.93
275.15 K, x1 = 0.1171	1042.67
276.15 K, x1 = 0.00244	1001.07
276.15 K, x1 = 0.00515	1002.28
276.15 K, x1 = 0.0086	1003.81
276.15 K, x1 = 0.02032	1008.85
276.15 K, x1 = 0.03478	1014.7
276.15 K, x1 = 0.04976	1020.4
276.15 K, x1 = 0.06674	1026.42
276.15 K, x1 = 0.08229	1031.63
276.15 K, x1 = 0.1171	1042.28
277.15 K, x1 = 0.00244	1001.06
277.15 K, x1 = 0.00515	1002.26
277.15 K, x1 = 0.0086	1003.77
277.15 K, x1 = 0.02032	1008.75
277.15 K, x1 = 0.03478	1014.54
277.15 K, x1 = 0.04976	1020.19
277.15 K, x1 = 0.06674	1026.14
277.15 K, x1 = 0.08229	1031.3
277.15 K, x1 = 0.1171	1041.88
278.15 K, x1 = 0.00244	1001.04
278.15 K, x1 = 0.00515	1002.23
278.15 K, x1 = 0.0086	1003.72
278.15 K, x1 = 0.02032	1008.64
278.15 K, x1 = 0.03478	1014.37
278.15 K, x1 = 0.04976	1019.96
278.15 K, x1 = 0.06674	1025.86
278.15 K, x1 = 0.08229	1030.99
278.15 K, x1 = 0.1171	1041.47
278.15 K, x1 = 0.1745	1056.3
278.15 K, x1 = 0.2169	1065.71
278.15 K, x1 = 0.2557	1073.39
278.15 K, x1 = 0.3026	1081.73
278.15 K, x1 = 0.351	1089.33
278.15 K, x1 = 0.4027	1096.66
278.15 K, x1 = 0.4487	1102.5
278.15 K, x1 = 0.4886	1107.05
278.15 K, x1 = 0.5601	1114.6
278.15 K, x1 = 0.5916	1117.67
278.15 K, x1 = 0.6674	1124.31
278.15 K, x1 = 0.7066	1127.46
278.15 K, x1 = 0.7495	1130.64
278.15 K, x1 = 0.7931	1133.73
278.15 K, x1 = 0.8601	1138.23
278.15 K, x1 = 0.8996	1140.73
278.15 K, x1 = 0.948	1143.61
278.15 K, x1 = 0.9753	1145.18
278.15 K, x1 = 0.9847	1145.72
278.15 K, x1 = 0.9897	1146.01
278.15 K, x1 = 0.9959	1146.38
278.15 K, x1 = 1	1146.62
279.15 K, x1 = 0.00244	1001
279.15 K, x1 = 0.00515	1002.18
279.15 K, x1 = 0.0086	1003.65
279.15 K, x1 = 0.02032	1008.52
279.15 K, x1 = 0.03478	1014.19
279.15 K, x1 = 0.04976	1019.74
279.15 K, x1 = 0.06674	1025.57
279.15 K, x1 = 0.08229	1030.68
279.15 K, x1 = 0.1171	1041.07
280.15 K, x1 = 0.00244	1000.95
280.15 K, x1 = 0.00515	1002.11
280.15 K, x1 = 0.0086	1003.57
280.15 K, x1 = 0.02032	1008.39
280.15 K, x1 = 0.03478	1014
280.15 K, x1 = 0.04976	1019.49
280.15 K, x1 = 0.06674	1025.28
280.15 K, x1 = 0.08229	1030.32
280.15 K, x1 = 0.1171	1040.65
281.15 K, x1 = 0.00244	1000.89
281.15 K, x1 = 0.00515	1002.04
281.15 K, x1 = 0.0086	1003.47
281.15 K, x1 = 0.02032	1008.25
281.15 K, x1 = 0.03478	1013.8
281.15 K, x1 = 0.04976	1019.23
281.15 K, x1 = 0.06674	1024.97
281.15 K, x1 = 0.08229	1029.97
281.15 K, x1 = 0.1171	1040.23
282.15 K, x1 = 0.00244	1000.81
282.15 K, x1 = 0.00515	1001.94
282.15 K, x1 = 0.0086	1003.37
282.15 K, x1 = 0.02032	1008.09
282.15 K, x1 = 0.03478	1013.58
282.15 K, x1 = 0.04976	1018.97
282.15 K, x1 = 0.06674	1024.66
282.15 K, x1 = 0.08229	1029.6
282.15 K, x1 = 0.1171	1039.81
283.15 K, x1 = 0.00244	1000.72
283.15 K, x1 = 0.00515	1001.84
283.15 K, x1 = 0.0086	1003.25
283.15 K, x1 = 0.02032	1007.94
283.15 K, x1 = 0.03478	1013.36
283.15 K, x1 = 0.04976	1018.7
283.15 K, x1 = 0.06674	1024.35
283.15 K, x1 = 0.08229	1029.24
283.15 K, x1 = 0.1171	1039.36
288.15 K, x1 = 0.00244	1000.07
288.15 K, x1 = 0.00515	1001.13
288.15 K, x1 = 0.0086	1002.47
288.15 K, x1 = 0.02032	1006.89
288.15 K, x1 = 0.03478	1012.11
288.15 K, x1 = 0.04976	1017.23
288.15 K, x1 = 0.06674	1022.65
288.15 K, x1 = 0.08229	1027.38
288.15 K, x1 = 0.1171	1037.14
288.15 K, x1 = 0.1745	1051.09
288.15 K, x1 = 0.2169	1059.95
288.15 K, x1 = 0.2557	1067.27
288.15 K, x1 = 0.3026	1075.25
288.15 K, x1 = 0.351	1082.54
288.15 K, x1 = 0.4027	1089.57
288.15 K, x1 = 0.4487	1095.2
288.15 K, x1 = 0.4886	1099.61
288.15 K, x1 = 0.5601	1106.92
288.15 K, x1 = 0.5916	1109.89
288.15 K, x1 = 0.6674	1116.35
288.15 K, x1 = 0.7066	1119.42
